# Laboratory results published in patent US12281301B2, “Sequencing-based proteomics” (THE BROAD INSTITUTE, INC., priority 2018, dated 2025).
# “Also recorded” adds a separate entry of the source. Peptide text beside a SMILES is read from it. * marks the point of attachment. Cbz = O=C(OCc1ccccc1)*
# Columns and labels:
# Assay type in all cases: cell-based, human
# [1] = test system: clonal mNeon-tagged reporter cell lines; experiment: FACS of clonal mNeon-tagged reporter cell lines after drug stimulation
# Method: (§1) Analytical flow cytometry. For optional genomic DNA staining, 1/20 volume of Hoechst 33342 (10 mg/ml, Thermo) was added to live cells for 15 minutes at 37° C. Cells were washed in PBS, trypsinized, resuspended in media, and analyzed on a CytoFLEX (Beckman Coulter) in 96-well plate mode.
# HEK293T cells [2] = experiment: TMT labeling whole proteome mass spectrometry, drug-treated versus untreated control cells
# Method: Mass spectrometry. Cells were grown and stimulated in 10 cm dishes, washed three times in cold PBS, and scraped into 1 ml 8 M urea in water per dish. Protein content of the lysates was quantified using Pierce 660 reagent and a NanoDrop spectrometer. Samples were reduced, iodoacetamide alkylated, digested with Trypsin, labeled with 10-plex TMT (VWR cat no PI90110), and combined. After SPE clean-up and volume reduction by SpeedVac, the combined sample was run on a C18 reverse phase LC using a pH 10 A buffer, and eight fractions were collected. The volume was reduced to 20 μl by SpeedVac. Each fraction was run on an EASY nLC HPLC attached to a Thermo QE-HFX mass spectrometer in nanospray configuration using a 90 minutes acquisition time. Proteins were quantified using the MaxQuant software package.
# Statistical analysis. Mass spectrometry reporter intensity data were imported into Perseus software, log-2-transformed, and filtered for missing values as well as reverse peptides or potential contaminants. Data were median-subtracted and significant outliers were determined by performing two-sided unpaired t-tests, correcting for multiple testing using an FDR=5% and s0=0.1, performing 250 randomizations. PATTERNS mean protein level bin data were processed in the same way except without the filtering and normalization steps. Volcano plots were generated using the Perseus software, and all other plots were created using custom code.
# HEK293T cells [3] = experiment: Immunoblotting validation of predicted drug-regulated proteins; settings: time points after drug treatment
# Method: Immunoblotting. Cells were lysed in 6-well plates in 400 μl 2×LDS buffer (Thermo) supplemented with 2×Bolt reducing agent (Thermo), heated to 95° C. for 15 minutes, and cooled on ice. 9 μl lysate was loaded per lane of Bolt 4-12% Bis-Tris Plus gels (Thermo) and run at 100 V for 1:15 h. Blotting was performed using the iBlot PVDF kit (Thermo) and program P-3 for 4 minutes. After blocking for 1 h in TBST 5% BSA, primary antibodies were bound over night at 4° C. in TBST 5% BSA. After triple washing, HRP-conjugated secondary antibodies (Cell Signaling Technology) were bound at 1:5000 dilution in TBST 5% BSA for 1 h at room temperature. Blots were imaged using Pierce ECL (Thermo) on a Chemidoc luminescence imager (Biorad). Primary antibodies used were: RBM39 clone 4G8 (Novus Biologicals), DDIT4 clone EPR18716 (Abcam), BRD2 clone D89B4 (Cell Signaling Technology), RRM2 clone 1E1 (Sigma), HRP-coupled beta-Actin clone 13E5 (Cell Signaling Technology), and cell cycle antibody cocktail (ab136810, Abcam).
# [4] = test system: library of tagged HEK293T cells; experiment: SBP/PATTERNS protein quantification (FACS binning and tag/barcode sequencing) of drug-treated versus untreated control cells; settings: for number of proteins significantly affected, by PATTERNS: 6 hours stated for Bortezomib
# Method: Library-scale RNP-mediated gene tagging. On day one, 18 million HEK293T NeoR-KO cells were plated per 15-cm dish into 32 dishes. On day two, 4 ml of scaled-up transfection mix (see above) were gently added per dish. On day seven, cells were trypsinized and re-plated in media containing 300 μg/ml G418 (Invivogen). The selection media was changed every 4-8 days. On day 25, the library was pre-enriched for detectable fluorescence by FACS sorting, gating on the top-30% mNeon-positive population. The library was expanded for a week and frozen for future use.
# Transposition-based Tag Integration Site Sequencing (TTISS). 800,000 cells were resuspended in 80 μl direct lysis buffer (1 mM CaCl2), 3 mM MgCl2, 1 mM EDTA, 1% Triton X-100, 10 mM Tris pH 7.5, 0.2 mg/ml Proteinase K), lysed at 65° C. for 10 minutes, and kept on ice or frozen at −20° C. 25 μl 5×TAPS buffer (50 mM TAPS-NaOH pH 8.5, 25 mM MgCl2), and 21 μl transposon-loaded Tn5 (16 mg/ml, produced as described in Picelli, S. et al. Tn5 transposase and tagmentation procedures for massively scaled sequencing projects. Genome Res 24, 2033-2040, doi: 10.1101/gr.177881.114 (2014), titrated batch-wise for optimal fragment sizes) were added, mixed well, and incubated at 55° C. for 10 minutes. The reaction was mixed with 625 μl buffer PB (Qiagen) and purified using a plasmid miniprep column (Qiagen). Typical yields were 15 μg per column. The tagmentation size distribution was verified on an agarose gel to range from 200 bp to 1 kb. All DNA from a single column was used as template in a 300 μl KOD extreme hot start PCR (Roche) with primers TTISS-mNeon-fwd1 and Tn5-Loading-R2 (Table 1), 12 cycles, Ta=60° C. 6 μl of PCR reaction was used as template in a secondary 50 μl KOD extreme hot start PCR with a unique combination of barcoded primers TTISS-mNeon-fwd2-D50× and TTISS-rev2-D70x(Table 1), 20 cycles, Ta=65° C. Barcoded PCRs were pooled on ice, purified using a PCR column (Qiagen), and run on an agarose gel. Products of 250 bp-1 kb were excised, purified using a gel purification kit (Qiagen), and re-purified using a PCR column (Qiagen). Samples were quantified using a NanoDrop spectrometer and sequenced using a NextSeq High Output kit (Illumina) with 30% PhiX spike-in and the following read settings: 120 cycles read 1, 25 cycles read 2, 8 cycles index 1, and 8 cycles index 2.
# Alternatively, 22 bp forward (fwd) reads and 8 bp reverse (rev) reads were aligned to 1 kb windows of the human genomic sequence (hg38) upstream of gRNA target sites not allowing mismatches, and hits were filtered to be in-frame with the annotated ORF (RefSeq). For gRNA-wise protein quantification, counts per gRNA from six adjacent sorted bins were used to calculate the weighted mean bin and variance. For UMI-based evaluation, a dictionary of UMIs was created per sequencing run by calculating a 28-bit hash of nine UMI bases together with one constant donor base and 22 target bases from successfully aligned fwd reads using the same alignment parameters as for gRNA-wise protein quantification. The hash was used to count UMI occurrences and store UMI sequence/target information in an array with typically below 10 conflicts per run. UMIs were collapsed with an edit distance of 1 in order to account for sequencing errors. The UMI dictionary was used to count bin- and UMI-wise reads using the same hash function. Counts per UMI from six adjacent sorted bins were used to calculate the weighted mean bin and variance. All software was written as interactive web tools in JavaScript and will be available through GitHub.
# FACS sorting. Cells were trypsinized, washed in FluoroBrite DMEM Media (Thermo) and sorted using a Sony MA900 (where not denoted otherwise) or a MoFlo Astrios sorter (for […], SKMEL28 screens) using a 488 nm laser. Cells were collected in 1 ml growth medium and kept on ice until pelleting and lysis.
# De-convolution of sorted libraries using Silent Barcode Sequencing. […]
# HEK293T cells [5] = experiment: RNA-sequencing transcript expression, drug-treated versus untreated control cells
# Method: RNA-seq. Whole-cell RNA was purified using an RNeasy Plus Mini Kit (Qiagen). Poly (A) mRNA was enriched using the Poly(A) mRNA Magnetic Isolation Module (NEB). Sequencing libraries were prepared using the NEBNext Ultra II Directional RNA Library Prep kit (NEB), quantified using a NanoDrop (Thermo), and sequenced on the NextSeq sequencer (Illumina). Reads were aligned to the human genome and gene expression was quantified using the online tool BrowserGenome.org (Schmid-Burgk, J. L. & Hornung, V. BrowserGenome.org: web-based RNA-seq data analysis and visualization. Nat Methods 12, 1001, doi: 10.1038/nmeth.3615 (2015)).
# MSH6 = experiment: MSH6-mNeonGreen reporter cell line assayed by FACS; settings: for MSH6-mNeonGreen expression after application of single compounds: single compounds at 125 nM for 6 h
# Method: as §1
# PRKDC = experiment: PRKDC-mNeonGreen reporter cells assayed by FACS; settings: 125 nM, indicated time points
# Method: as §1
# [6] = drug-treated vs untreated control cells
smiles,measurement,setting,value
CC(C)C[C@H](NC(=O)[C@H](Cc1ccccc1)NC(=O)c1cnccn1)B(O)O [Bortezomib],"PATTERNS hits DDIT4, ID1, ID2 and JUN validated by FACS of reporter cell lines",[1],confirmed
same,DDIT4 regulation in clonal mNeon-tagged reporter cell line by FACS,[1]; stimulated for six hours,confirmed
same,DDIT4 quantification by quantitative mass spectrometry,HEK293T cells [2]; [6],failed to quantify
same,outlier / upregulated proteins by TMT whole proteome mass spectrometry,"HEK293T cells [2]; drug-treated vs untreated control cells, triplicate",ATF3 and JUN; also recorded: two upregulated proteins
same,DDIT4 increase validated by western blot,HEK293T cells [3],confirmed
same,"PATTERNS hits DDIT4, ID1, ID2 and JUN validated by western blot",HEK293T cells [3],confirmed
same,DDIT4 level by PATTERNS,"[4]; HEK293T library, 6 hours, change may be non-specific",affected
same,"number of proteins significantly affected, by PATTERNS",[4]; HEK293T library,55 proteins
same,DDIT4 level change (mean protein expression bin) by SBP,"[4]; topmost change, not statistically significant in the SBP data",+1.6 bins
same,DDIT4 identification as target by RNA-Seq,HEK293T cells [5]; [6],could not identify
same,PATTERNS hits regulated at the transcript level (RNA-sequencing),HEK293T cells [5]; of the 55 PATTERNS hits,only GADD45B
NS(=O)(=O)c1ccc(S(=O)(=O)Nc2cccc3c(Cl)c[nH]c23)cc1 [Indisulam],RBM39 depletion validated by FACS of a clonal reporter cell line,[1]; stimulated for six hours,confirmed
same,RBM39 down-regulation by TMT whole proteome mass spectrometry,HEK293T cells [2]; strong but not statistically significant hit,2 fold
same,RBM39 depletion validated by western blot,HEK293T cells [3],confirmed
same,effect size of the next potentially depleted protein by SBP,"[4]; drug vs DMSO control, comparison with RBM39",−0.37 bins
same,RBM39 effect size (change of mean protein expression bin) by SBP,"[4]; drug vs DMSO control, six sorted expression bins, two replicate runs",−2.1 bins
same,RBM39 protein level change by SBP/PATTERNS,[4]; drug-treated vs control tagged library,highly specific depletion
same,significantly depleted proteins by SBP/PATTERNS (specificity),"[4]; two replicates, FDR 5%",only significantly depleted protein
same,RBM39 RNA level,HEK293T cells [5]; [6],no significant change
CCc1c(O)cc(O)c(C(=O)c2ccc(OCCN3CCOCC3)c(OC)c2)c1CC(=O)N(CCOC)CCOC.Cl [KW-2478],MSH6-mNeonGreen expression after application of single compounds,MSH6,downregulation
CC(C)C[C@@H](C=O)NC(=O)[C@H](CC(C)C)NC(=O)[C@H](CC(C)C)NC(=O)OCc1ccccc1 [MG-132] (Cbz-Leu-Leu-Leu-aldehyde),DDIT4 regulation in clonal mNeon-tagged reporter cell line by FACS,[1]; stimulated for six hours,regulated
Cc1ncsc1-c1ccc(CNC(=O)[C@@H]2C[C@@H](O)CN2C(=O)[C@@H](NC(=O)COCCOCCOCCNC(=O)C[C@@H]2N=C(c3ccc(Cl)cc3)c3c(sc(C)c3C)-n3c(C)nnc32)C(C)(C)C)cc1 [MZ-1],BRD2 decrease validated by FACS of clonal reporter cell line,[1]; stimulated for six hours,confirmed
same,BRD4 in mass spectrometry analysis,HEK293T cells [2]; BRD4 not represented in the SBP library,not statistically significant hit
same,BRD2 down-regulation by mass spectrometry,HEK293T cells [2]; strong albeit not statistically significant hit,2.3 fold
same,BRD2 decrease validated by western blot,HEK293T cells [3],confirmed
same,"BRD protein family members degraded, by PATTERNS",[4]; HEK293T library,"degradation of two BRD protein family members, BRD2 and BRD3"
same,"number of proteins significantly affected, by PATTERNS",[4]; HEK293T library,20 proteins
same,BRD2 protein level change by SBP,[4]; drug vs DMSO control,significant decrease
same,BRD2 identification by RNA-Seq,HEK293T cells [5]; [6],could not be identified
"CC1(C)CC(=O)c2c(C(F)(F)F)nn(-c3ccc(C(N)=O)c(N[C@H]4CC[C@H](O)CC4)c3)c2C1 [SNX2112, SNX-2112]",kinetics of the reduction of PRKDC levels,PRKDC,also observed
same,kinetics of the reduction of MSH6 levels,"MSH6; 125 nM, indicated time points",significant depletion in MSH6 levels in under two hours
same,MSH6-mNeonGreen expression after application of single compounds,MSH6,downregulation
CC1(C)CC(=O)c2c(C(F)(F)F)nn(-c3ccc(C(N)=O)c(N[C@H]4CC[C@H](OC(=O)CN)CC4)c3)c2C1 [SNX-5422],MSH6-mNeonGreen expression after application of single compounds,MSH6,downregulation
